From patent US10428087B2, “Pyrimidinones as PI3K inhibitors” (Incyte Corporation, priority 2009, dated 2019)
Counter-ions that a name gives are not always drawn.

These compounds were tested on Pfeiffer cell line (diffuse large B cell lymphoma) (assay: Pfeiffer cell proliferation assay (Example B2)). Conditions: Homo sapiens, Pfeiffer, Pfeiffer cells, [3H]-thymidine.
Assay type: cell-based
Description: Pfeiffer cell line (diffuse large B cell lymphoma) was purchased from ATCC (Manassas, Va.) and maintained in the culture medium recommended (RPMI and 10% FBS). To measure the anti-proliferation activity of the PI3Kδ submittals, the Pfeiffer cells were plated with the culture medium (2×10^3 cells/well/per 200 μl) into 96-well ultra-low binding plates (Corning, Corning, N.Y.), in the presence or absence of a concentration range of test compounds. After 3-4 days, [^3H]-thymidine (1 μCi/well) (PerkinElmer, Boston, Mass.) in PBS was then added to the cell culture for an additional 12 hrs before the incorporated radioactivity was separated by filtration with water through GF/B filters (Packard Bioscience, Meridenj, Conn.) and measured by liquid scintillation counting with a TopCount (Packard Bioscience). See Table 3 for data related to compounds of the invention.

IC50	Compound
100 to 500 nM	Cc1csc2nc(C(C)Nc3ncnc4[nH]cnc34)c(-c3cc(F)cc(F)c3)c(=O)n12 (stereo not shown) [Example 12, 6-(3,5-difluorophenyl)-3-methyl-7-[1-(9H-purin-6-ylamino)ethyl]-5H-[1,3]thiazolo[3,2-a]pyrimidin-5-one]
> 1000 nM	Cc1csc2nc(C(C)Nc3ncnc4[nH]cnc34)c(-c3ccccn3)c(=O)n12 (stereo not shown) [Example 14, 3-methyl-7-[1-(9H-purin-6-ylamino)ethyl]-6-pyridin-2-yl-5H-[1,3]thiazolo[3,2-a]pyrimidin-5-one]
100 to 500 nM	Cc1csc2nc([C@H](C)Nc3ncnc4[nH]ccc34)c(-c3cc(F)cc(F)c3)c(=O)n12 [Example 17, 6-(3,5-difluorophenyl)-3-methyl-7-[1-(7H-pyrrolo[2,3-d]pyrimidin-4-ylamino)ethyl]-5H-[1,3]thiazolo[3,2-a]pyrimidin-5-one]
50 to 100 nM	Cc1csc2nc(C(C)Nc3nc(F)nc4[nH]cnc34)c(-c3cc(F)cc(F)c3)c(=O)n12 (stereo not shown) [Example 18, 6-(3,5-difluorophenyl)-7-{1-[(2-fluoro-9H-purin-6-yl)amino]ethyl}-3-methyl-5H-[1,3]thiazolo[3,2-a]pyrimidin-5-one]
> 1000 nM	Cc1csc2nc(C(C)Nc3ncnc4[nH]cnc34)c(-c3ccncc3)c(=O)n12 (stereo not shown) [Example 19, 3-methyl-7-[1-(9H-purin-6-ylamino)ethyl]-6-pyridin-4-yl-5H-[1,3]thiazolo[3,2-a]pyrimidin-5-one]
50 to 100 nM	Cc1csc2nc(C(C)Nc3ncnc4[nH]cnc34)c(-c3nccs3)c(=O)n12 (stereo not shown) [Example 20, 3-methyl-7-[1-(9H-purin-6-ylamino)ethyl]-6-(1,3-thiazol-2-yl)-5H-[1,3]thiazolo[3,2-a]pyrimidin-5-one trifluoroacetic acid salt]
50 to 100 nM	Cc1csc2nc(C(C)Nc3ncnc4[nH]cnc34)c(-c3cscn3)c(=O)n12 (stereo not shown) [Example 21, 3-methyl-7-[1-(9H-purin-6-ylamino)ethyl]-6-(1,3-thiazol-4-yl)-5H-[1,3]thiazolo[3,2-a]pyrimidin-5-one trifluoroacetic acid salt]
100 to 500 nM	Cc1csc2nc(C(C)Nc3ncnc4[nH]cnc34)c(-c3ccc(F)cc3)c(=O)n12 (stereo not shown) [Example 22, 6-(4-fluorophenyl)-3-methyl-7-[1-(9H-purin-6-ylamino)ethyl]-5H-[1,3]thiazolo[3,2-a]pyrimidin-5-one trifluoroacetic acid salt]
100 to 500 nM	CC(Nc1nc(N)nc2[nH]cnc12)c1nc2sccn2c(=O)c1-c1cc(F)cc(F)c1 (stereo not shown) [Example 24, 7-{1-[(2-amino-9H-purin-6-yl)amino]ethyl}-6-(3,5-difluorophenyl)-5H-[1,3]thiazolo[3,2-a]pyrimidin-5-one]
500 to 1000 nM	CC(Nc1ncnc2[nH]cnc12)c1nc2sccn2c(=O)c1-c1cc(F)cc(F)c1 (stereo not shown) [Example 25, 6-(3,5-difluorophenyl)-7-[1-(9H-purin-6-ylamino)ethyl]-5H-[1,3]thiazolo[3,2-a]pyrimidin-5-one]
100 to 500 nM	CC(Nc1nc(N)nc2[nH]cnc12)c1nc2sccn2c(=O)c1-c1ccccc1 (stereo not shown) [Example 27, 7-{1-[(2-amino-9H-purin-6-yl)amino]ethyl}-6-phenyl-5H-[1,3]thiazolo[3,2-a]pyrimidin-5-one]
100 to 500 nM	Cc1ccc(-c2c(C(C)Nc3ncnc4[nH]cnc34)nc3scc(C)n3c2=O)cc1 (stereo not shown) [Example 31, 3-methyl-6-(4-methylphenyl)-7-[1-(9H-purin-6-ylamino)ethyl]-5H-[1,3]thiazolo[3,2-a]pyrimidin-5-one trifluoroacetic acid salt]
< 50 nM	Cc1csc2nc(C(C)Nc3nc(N)nc4[nH]cnc34)c(-c3cccc(Cl)c3)c(=O)n12 (stereo not shown) [Example 32, 7-{1-[(2-amino-9H-purin-6-yl)amino]ethyl}-6-(3-chlorophenyl)-3-methyl-5H-[1,3]thiazolo[3,2-a]pyrimidin-5-one trifluoroacetic acid salt]
< 50 nM	Cc1csc2nc(C(C)Nc3nc(N)nc4[nH]cnc34)c(-c3ccccc3F)c(=O)n12 (stereo not shown) [Example 33, 7-{1-[(2-amino-9H-purin-6-yl)amino]ethyl}-6-(2-fluorophenyl)-3-methyl-5H-[1,3]thiazolo[3,2-a]pyrimidin-5-one trifluoroacetic acid salt]
< 50 nM	Cc1csc2nc(C(C)Nc3nc(N)nc4[nH]cnc34)c(-c3cccc(F)c3F)c(=O)n12 (stereo not shown) [Example 34, 7-{1-[(2-amino-9H-purin-6-yl)amino]ethyl}-6-(2,3-difluorophenyl)-3-methyl-5H-[1,3]thiazolo[3,2-a]pyrimidin-5-one trifluoroacetic acid salt]
< 50 nM	Cc1csc2nc(C(C)Nc3nc(N)nc4[nH]cnc34)c(-c3cc(F)cc(Cl)c3)c(=O)n12 (stereo not shown) [Example 35, 7-{1-[(2-amino-9H-purin-6-yl)amino]ethyl}-6-(3-chloro-5-fluorophenyl)-3-methyl-5H-[1,3]thiazolo[3,2-a]pyrimidin-5-one trifluoroacetic acid salt]

IC50	Compound
50 to 100 nM	Cc1csc2nc(C(C)Nc3ncnc4[nH]cnc34)c(-c3cccc(Cl)c3)c(=O)n12 (stereo not shown) [Example 36, 6-(3-chlorophenyl)-3-methyl-7-[1-(9H-purin-6-ylamino)ethyl]-5H-[1,3]thiazolo[3,2-a]pyrimidin-5-one trifluoroacetic acid salt]
50 to 100 nM	Cc1csc2nc(C(C)Nc3ncnc4[nH]cnc34)c(-c3cc(F)cc(Cl)c3)c(=O)n12 (stereo not shown) [Example 37, 6-(3-chloro-5-fluorophenyl)-3-methyl-7-[1-(9H-purin-6-ylamino)ethyl]-5H-[1,3]thiazolo[3,2-a]pyrimidin-5-one trifluoroacetic acid salt]
50 to 100 nM	Cc1csc2nc(C(C)Nc3nc(N)nc4[nH]cnc34)c(-c3cncc(F)c3)c(=O)n12 (stereo not shown) [Example 38, 7-{1-[(2-amino-9H-purin-6-yl)amino]ethyl}-6-(5-fluoropyridin-3-yl)-3-methyl-5H-[1,3]thiazolo[3,2-a]pyrimidin-5-one trifluoroacetic acid salt]
50 to 100 nM	Cc1csc2nc(C(C)Nc3ncnc4[nH]cnc34)c(-c3ccccc3F)c(=O)n12 (stereo not shown) [Example 40, 6-(2-fluorophenyl)-3-methyl-7-[1-(9H-purin-6-ylamino)ethyl]-5H-[1,3]thiazolo[3,2-a]pyrimidin-5-one trifluoroacetic acid salt]
50 to 100 nM	Cc1csc2nc(C(C)Nc3ncnc4[nH]cnc34)c(-c3cccc(F)c3F)c(=O)n12 (stereo not shown) [Example 41, 6-(2,3-difluorophenyl)-3-methyl-7-[1-(9H-purin-6-ylamino)ethyl]-5H-[1,3]thiazolo[3,2-a]pyrimidin-5-one trifluoroacetic acid salt]
100 to 500 nM	Cc1csc2nc(C(C)Nc3ncnc4[nH]cnc34)c(-c3cncc(F)c3)c(=O)n12 (stereo not shown) [Example 42, 6-(5-fluoropyridin-3-yl)-3-methyl-7-[1-(9H-purin-6-ylamino)ethyl]-5H-[1,3]thiazolo[3,2-a]pyrimidin-5-one trifluoroacetic acid salt]
50 to 100 nM	Cc1csc2nc(C(C)Nc3ncnc4[nH]cnc34)c(-c3cc(F)ccc3F)c(=O)n12 (stereo not shown) [Example 45, 6-(2,5-difluorophenyl)-3-methyl-7-[1-(9H-purin-6-ylamino)ethyl]-5H-[1,3]thiazolo[3,2-a]pyrimidin-5-one trifluoroacetic acid salt]
< 50 nM	Cc1csc2nc([C@H](C)Nc3ccnc4[nH]cnc34)c(-c3cccc(F)c3)c(=O)n12 [Example 46, 6-(3-Fluorophenyl)-7-[(1S)-1-(3H-imidazo[4,5-b]pyridin-7-ylamino)ethyl]-3-methyl-5H-[1,3]thiazolo[3,2-a]pyrimidin-5-one]
50 to 100 nM	CC(Nc1ncnc2[nH]cnc12)c1nc2scc(C(F)(F)F)n2c(=O)c1-c1cccc(F)c1 (stereo not shown) [Example 48, 6-(3-Fluorophenyl)-7-[1-(9H-purin-6-ylamino)ethyl]-3-(trifluoromethyl)-5H-[1,3]thiazolo[3,2-a]pyrimidin-5-one]
50 to 100 nM	Cc1cccc2nc(C(C)Nc3ncnc4[nH]cnc34)c(-c3ccccc3)c(=O)n12 (stereo not shown) [Example 49, 6-Methyl-3-phenyl-2-[1-(9H-purin-6-ylamino)ethyl]-4H-pyrido[1,2-a]pyrimidin-4-one trifluoroacetic acid salt]
< 50 nM	Cc1cccc2nc(C(C)Nc3nc(N)nc4[nH]cnc34)c(-c3ccccc3)c(=O)n12 (stereo not shown) [Example 50, 2-{1-[(2-Amino-9H-purin-6-yl)amino]ethyl}-6-methyl-3-phenyl-4H-pyrido[1,2-a]pyrimidin-4-one trifluoroacetic acid salt]
100 to 500 nM	Cc1cccc(-c2c(C(C)Nc3ncnc4[nH]cnc34)nc3cccc(C)n3c2=O)c1 (stereo not shown) [Example 51, 6-Methyl-3-(3-methylphenyl)-2-[1-(9H-purin-6-ylamino)ethyl]-4H-pyrido[1,2-a]pyrimidin-4-one trifluoroacetic acid salt]
50 to 100 nM	Cc1cccc(-c2c(C(C)Nc3nc(N)nc4[nH]cnc34)nc3cccc(C)n3c2=O)c1 (stereo not shown) [Example 52, 2-{1-[(2-Amino-9H-purin-6-yl)amino]ethyl}-6-methyl-3-(3-methylphenyl)-4H-pyrido[1,2-a]pyrimidin-4-one trifluoroacetic acid salt]
50 to 100 nM	Cc1cccc2nc(C(C)Nc3ncnc4[nH]cnc34)c(-c3cccc(Cl)c3)c(=O)n12 (stereo not shown) [Example 53, 3-(3-Chlorophenyl)-6-methyl-2-[1-(9H-purin-6-ylamino)ethyl]-4H-pyrido[1,2-a]pyrimidin-4-one trifluoroacetic acid salt]
50 to 100 nM	Cc1cccc2nc(C(C)Nc3nc(N)nc4[nH]cnc34)c(-c3cccc(Cl)c3)c(=O)n12 (stereo not shown) [Example 54, 2-{1-[(2-Amino-9H-purin-6-yl)amino]ethyl}-3-(3-chlorophenyl)-6-methyl-4H-pyrido[1,2-a]pyrimidin-4-one trifluoroacetic acid salt]
